In general, pIC50 refers to −log10 of the IC50, conventionally taken in molar units.

4 molecules from patent US20140057915A1, “KINASE INHIBITORS” (TOPIVERT PHARMA LIMITED, priority 2012, published 2014) can be followed below.

pIC50: −log10 of the molar value. Like-named read-outs stand apart in the source and are kept apart here. Where only a bound is given, the exact number is not on record here.

Series [1] deals with T1, GSK3α (Homo sapiens, UniProt P49840). Nature of the series: GSK 3α enzyme inhibition (FRET), Method 1. Type of series: biochemical. The conditions noted are these: Table 4a1. The procedure, abridged: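 Inhibition is scored from phosphorylation of a dual-labelled synthetic peptide, measured by FRET after protease cleavage of unphosphorylated substrate. Incubations are 2 hr compound with enzyme, then 1 hr kinase reaction.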

Series [2] addresses T1, GSK3α. Put plainly: GSK 3α enzyme inhibition (FRET), Method 2. Type of series: biochemical. The conditions noted are these: Table 4a2, different laboratory.
The subject of series [3] is IL-8 release, PBMCs. Put plainly: LPS-induced IL-8 release in PBMC cells. Type of series: cell-based. The conditions noted are these: Homo sapiens, LPS stimulated, read-out: IC50 Values for Inhibition of Cytokine Release, PBMCs, IL-8. The essentials: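 PBMCs from healthy donors pretreated with compound for 2 h, then stimulated with 1 ng/ml LPS (E. coli 0111:B4) for 24 h at 37 °C, 5% CO2. Supernatant IL-8 and TNFα measured by sandwich ELISA with fluorescence read-out.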

Series [4] deals with IL-2 release, PBMCs. Put plainly: IL-2 release in CD3/CD28 stimulated PBMC cells. It counts as cell-based. The conditions noted are these: Homo sapiens, read-out: IC50 Values for Inhibition of Cytokine Release, PBMCs, IL-2.
In series [5] the test system is IFN gamma release, PBMCs. Put plainly: IFN gamma release in CD3/CD28 stimulated PBMC cells. Type of series: cell-based. The conditions noted are these: Homo sapiens, read-out: IC50 Values for Inhibition of Cytokine Release, PBMCs, IFNγ.
In series [6] the test system is IL-8 release, HT29 cells. Put plainly: IL-1β-induced IL-8 release in HT29 cells. It counts as cell-based. The conditions noted are these: Homo sapiens, HT-29; IL-1β stimulated; read-out: IC50 Values for Inhibition of Cytokine Release, HT29 cells, IL-8. As to the method:
(d) IL-1β-Induced IL-8 Release in HT29 Cells
HT29 cells, a human colon adenocarcinoma cell line, are plated in a 96 well plate (24 hrs) and pre-treated with compounds at the desired concentration for 2 hours before addition of 5 ng/ml of IL-1β (Abeam) for 24 hours, Supernatants are harvested for IL-8 quantification by Sandwich ELISA (Duo-set, R&D System). The IC50 is determined from the dose response curve.

Series [7] has as its system d-U937 cells. Nature of the series: Cell viability: MTT assay. It counts as cell-based, human. The conditions noted are these: 1 μg/mL. The essentials:
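Differentiated U937 cells exposed to compound at 1 or 10 μg/mL, either 4 h in 5% FCS or 24 h in 10% FCS RPMI1640. MTT then added for 1 h, formazan dissolved in DMSO and read at 550 nm. Viability loss given as % versus 0.5% DMSO vehicle; apparent gains appear negative.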
A general note: Formazan colour is commonly taken as a measure of viable cells.

A short description of series [8]: Cryopreserved hepatocyte stability. It counts as in vitro ADME. The conditions noted are these: arithmetic mean of two experiments; for hepatocyte CLint at 0.1 μM: read-out: Mean intrinsic clearance. As to the method: Cryopreserved Hepatocyte Stability
• Hepatocyte stability assays were performed with incubations of test compounds (0.1 μM initial concentration, n=2) carried out with pooled human, dog and rat cryopreserved hepatocytes from Celsis (Lot numbers RRW, KLI and WAP, respectively) at a cell density of 0.5 million cells/mL. The incubations were performed at 37° C. with 100 μL samples taken from the incubation, at 0, 10, 20, 45 and 90 minutes, and reactions terminated by addition of 100 μL of acetonitrile containing carbamazepine as analytical internal standard. […] Half-life values were calculated from the relationship
T1/2(min)=−0.693/λ • where λ was the slope of the Ln concentration vs time curve. • Standard compounds testosterone, midazolam and 4-methylumbelliferone are included in the assay design. These compounds give an indication of the metabolic capacity of the cryopreserved preparations for both Phase I and Phase II reactions. • In vitro intrinsic clearance (CIint), as μL/min/million cells was calculated by applying the following formula to the half-life values:
CIint(Tissue Clearance) mL/min/kg=[0.693/t½(min)]×[1/hepatocyte concentration(million cells/mL)]×[million cells/g liver]×[g liver/kg body weight]
CIint(Hepatic clearance) mL/min/kg=hepatic blood flow×CIint/(hepatic blood flow+CIint)
Hepatic extraction ratio(Eh)=CIint(Hepatic clearance) mL/min/kg/hepatic blood flow(mL/min/kg)

Where [9] appears, read: human cryopreserved hepatocytes.
Setting [10] is: pooled cryopreserved hepatocytes, dog cryopreserved hepatocytes.
[11] abbreviates: pooled cryopreserved hepatocytes, rat cryopreserved hepatocytes.
[12] abbreviates: pooled cryopreserved human hepatocytes.

T1 sequence (P49840 whole entry): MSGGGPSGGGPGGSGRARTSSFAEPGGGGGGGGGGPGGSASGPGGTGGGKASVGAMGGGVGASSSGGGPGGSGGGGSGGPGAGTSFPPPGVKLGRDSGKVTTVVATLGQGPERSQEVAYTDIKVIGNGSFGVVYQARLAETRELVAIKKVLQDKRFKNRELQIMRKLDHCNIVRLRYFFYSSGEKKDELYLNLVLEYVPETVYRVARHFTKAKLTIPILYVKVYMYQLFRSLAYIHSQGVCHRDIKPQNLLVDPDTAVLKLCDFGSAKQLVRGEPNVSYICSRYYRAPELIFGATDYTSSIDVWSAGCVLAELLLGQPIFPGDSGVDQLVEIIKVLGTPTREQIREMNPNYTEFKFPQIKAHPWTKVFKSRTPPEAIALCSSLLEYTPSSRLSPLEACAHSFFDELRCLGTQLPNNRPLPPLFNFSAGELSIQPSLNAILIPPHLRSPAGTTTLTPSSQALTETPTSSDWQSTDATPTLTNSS

For the molecule `COc1cc(Nc2cc(Oc3ccc(NC(=O)Nc4cc(C(C)(C)C)nn4-c4ccc(C)cc4)c4ccccc34)ccn2)cc(C(=O)NCCN2CCOCC2)c1` [Example 1, 3-((4-((4-(3-(3-(tert-Butyl)-1-(p-tolyl)-1H-pyrazol-5-yl)ureido)naphthalen-1-yl)oxy)pyridin-2-yl)amino)-5-methoxy-N-(2-morpholinoethyl)benzamide], the pIC50 in series [1] was 5.54; in series [2], 5.16; in series [3] it was 8.62; in series [4], 7.07; in series [5], 8.52; in series [6] it was 7.99. Moreover, the “Cell viability at time point in d-U937 cells, 4 h” value in series [7] was “−ve (−ve and +ve indicate that the value is below and above respectively, the no significant effect threshold, defined as 30% inhibition at 1 μg/mL at the time point indicated)”. For the same molecule, in series [7], the “Cell viability at time point in d-U937 cells, 24 h” value was “−ve (−ve and +ve indicate that the value is below and above respectively, the no significant effect threshold, defined as 30% inhibition at 1 μg/mL at the time point indicated)”.

`C#Cc1cc(Nc2nccc(Oc3ccc(NC(=O)Nc4cc(C(C)C)nn4-c4ccc(C)cc4)c4ccccc34)n2)cc(C(=O)NCCN2CCOCC2)c1` [Example 46, 3-ethynyl-5-((4-((4-(3-(3-isopropyl-1-(p-tolyl)-1H-pyrazol-5-yl)ureido)naphthalen-1-yl)oxy)pyrimidin-2-yl)amino)-N-(2-morpholinoethyl)benzamide]: the negative-log IC50 (pIC50) in series [2] was 4.95; in series [3] it was 8.96; in series [4], 7.23; in series [5], 8.57; in series [6] it was 8.27. Also, the “Cell viability at time point in d-U937 cells, 4 h” value in series [7] is “−ve (−ve and +ve indicate that the value is below and above respectively, the no significant effect threshold, defined as 30% inhibition at 1 μg/mL at the time point indicated)”. Further, the “Cell viability at time point in d-U937 cells, 24 h” value in series [7] is “−ve (−ve and +ve indicate that the value is below and above respectively, the no significant effect threshold, defined as 30% inhibition at 1 μg/mL at the time point indicated)”.

For `C#Cc1cc(Nc2nccc(Oc3ccc(NC(=O)Nc4cc(C(C)(C)C)nn4-c4ccc(OC)cc4)c4ccccc34)n2)cc(C(=O)NCCN2CCOCC2)c1` [Example 77, 3-((4-((4-(3-(3-(tert-Butyl)-1-(4-methoxyphenyl)-1H-pyrazol-5-yl)ureido)-naphthalen-1-yl)oxy)pyrimidin-2-yl)amino)-5-ethynyl-N-(2-morpholinoethyl)benzamide], the pIC50 is 5.23 in series [2]; 8.96 in series [3]; 7.37 in series [4]; 9.10 in series [5]; 8.70 in series [6]. Moreover, the “Mean hepatic extraction ratio (Eh)” value turned out to be 0.87 in series [8] (dog cryopreserved hepatocytes), 0.69 in series [8] (setting [9]) and 0.55 in series [8] (rat cryopreserved hepatocytes). The values for the hepatocyte CLint at 0.1 μM in series [8] (setting [10]), in series [8] (setting [11]) and in series [8] (setting [12]) were 26 µL/min/1e6 cells, 12 µL/min/1e6 cells and 16 µL/min/1e6 cells, respectively.

As to `C#Cc1cc(Nc2nccc(Oc3ccc(NC(=O)Nc4cc(C(C)(C)C)nn4-c4ccc(N(C)C)cc4)c4ccccc34)n2)cc(C(=O)NCCN2CCOCC2)c1` [Example 80, 3-((4-((4-(3-(3-(tert-Butyl)-1-(4-(dimethylamino)phenyl)-1H-pyrazol-5-yl)ureido)naphthalen-1-yl)oxy)pyrimidin-2-yl)amino)-5-ethynyl-N-(2-morpholinoethyl)-benzamide], the pIC50 in series [2] is at most 4.90; in series [3], 8.82; in series [4], 8.64; in series [5], 8.74; in series [6], 8.21. Also, the “Mean hepatic extraction ratio (Eh)” value in series [8] (dog cryopreserved hepatocytes) was 0.73; in series [8] (setting [9]), below 0.61; in series [8] (rat cryopreserved hepatocytes), below 0.44. In addition, the figures for the hepatocyte CLint at 0.1 μM in series [8] (setting [10]), in series [8] (setting [11]) and in series [8] (setting [12]) were 11 µL/min/1e6 cells, below 8 µL/min/1e6 cells and below 11 µL/min/1e6 cells, respectively.
